Data published in patent publication EP1159267B1, “N-SUBSTITUTED INDOLINES AS ESTROGENIC AGENTS” (Wyeth, priority 1999, dated 2000).
Counter-ions that a name gives are not always drawn.

Biological target: T1, estrogen receptor (ER) (Homo sapiens, UniProt P03372)
T1 construct: expressed in transfected cells; host or cells: CHO cells (ribosome-free cytosol)
T1 sequence (P03372 1-595): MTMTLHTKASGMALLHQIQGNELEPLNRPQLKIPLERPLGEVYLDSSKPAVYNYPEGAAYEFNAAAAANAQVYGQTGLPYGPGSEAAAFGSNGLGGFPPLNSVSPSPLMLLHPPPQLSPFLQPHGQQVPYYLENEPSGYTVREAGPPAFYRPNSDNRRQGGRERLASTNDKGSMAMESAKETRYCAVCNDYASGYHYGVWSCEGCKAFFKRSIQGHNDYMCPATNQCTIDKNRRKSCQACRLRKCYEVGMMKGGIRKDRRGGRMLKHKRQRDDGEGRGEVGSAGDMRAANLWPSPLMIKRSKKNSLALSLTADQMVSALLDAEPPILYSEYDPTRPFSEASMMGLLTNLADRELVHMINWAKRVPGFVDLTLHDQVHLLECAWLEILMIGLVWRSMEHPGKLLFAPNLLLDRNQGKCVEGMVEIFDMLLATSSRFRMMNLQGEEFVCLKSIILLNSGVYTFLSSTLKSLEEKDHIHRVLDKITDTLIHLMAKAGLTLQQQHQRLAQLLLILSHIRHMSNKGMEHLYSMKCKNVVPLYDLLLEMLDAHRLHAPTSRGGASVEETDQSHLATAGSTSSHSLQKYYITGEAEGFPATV
Assay: Receptor Binding Assay (competition with [3H]17β-estradiol)
Details: cytosol of CHO cells overexpressing the estrogen receptor; 0.8 nM [3H]17β-estradiol; 12 competitor concentrations; room temperature, 2.5 h

IC50 [nM] | SMILES
800 | CC1(C)c2cc(O)ccc2N(Cc2ccc(OCCN3CCCCC3)cc2)C1c1ccccc1 (stereo not shown) [Example No. 4, 3,3-dimethyl-2-phenyl-1-[4-(2-piperidin-1-yl-ethoxy)-benzyl]-2,3-dihydro-1H-indol-5-ol (HCl)]
1000 | CC1(C)c2cc(O)ccc2N(Cc2ccc(OCCN3CCCCCC3)cc2)C1c1ccccc1 (stereo not shown) [Example No. 6, 1-[4-(2-Azepan-1-yl-ethoxy)-benzyl]-3,3-dimethyl-2-phenyl-2,3-dihydro-1H-indol-5-ol]
310 | CC1(C)c2cc(O)ccc2N(Cc2ccc(OCCN3CCCCC3)cc2)C1c1ccc(O)cc1 (stereo not shown) [Example No. 9, 2-(4-Hydroxy-phenyl)-3,3-dimethyl-1-[4-(2-piperidin-1-yl-ethoxy)-benzyl]-2,3-dihydro-1H-indol-5-ol]
350 | CC1(C)c2cc(O)ccc2N(Cc2ccc(OCCN3CCCCCC3)cc2)C1(c1ccccc1)c1ccc(O)cc1 (stereo not shown) [Example No. 11, 1-[4-(2-Azepan-1-yl-ethoxy)-benzyl]-2-(4-hydroxy-phenyl)-3,3-dimethyl-2-Phenyl-2,3-dihydro-1H-indol-5-ol]
